Data: patent publication US20130031644A1, “AUTONOMOUS LUX REPORTER SYSTEM AND METHODS OF USE” (University of Tennessee Research Foundation, priority 2011, published 2013)

Assays:
[1] = tested on: luxC gene transcription under the tetracycline response element in HEK293 cells (pLuxAB/pLuxCDEfrp-TET); test: rt-PCR of luxC transcription in response to doxycycline; type: cell-based, human; settings: for average CT value for luxC detection: 24 h, average of eleven cell lines; for increase in luxC transcription / reduction of cycles to reach CT: best performing cell line
Procedure: Twenty-four h post-transfection, the medium was removed and replaced with complete medium supplemented with the appropriate antibiotic. Selection of successfully transfected clones was performed by refreshing selective medium every 4-5 d until all untransfected cells had died. At this time, colonies of transfected cells were removed by scraping, transferred to individual 25 cm^2 cell culture flasks, and grown in complete medium supplemented with the appropriate antibiotics. To screen the resulting cell lines for the ability to regulate luxC transcription in response to doxycycline, relative reverse transcription PCR (rt-PCR) was used to determine the level of luxC mRNA present 24 h following the addition of 0, 10, or 100 ng doxycycline/ml to the complete growth medium. To this end, each isolated cell line was split into 4 25 cm^2 cell culture flasks upon reaching 80% confluence. Cells were then grown at 37° C. and 5% CO2 until again reaching ˜80% confluence. At this point, one of the flasks was routinely passaged to maintain a stock of cells for future use. The remaining 3 flasks were spiked with 0, 10, or 100 ng doxycycline/ml and returned to the incubator. Twenty-four h post doxycycline addition, cells were harvested and total RNA was isolated using an RNeasy isolation kit (Qiagen). Isolated RNA was used directly for rt-PCR analysis, and cell lines displaying the greatest range in luxC transcription between 0 ng Doxycycline/ml treatment and either 10 ng or 100 ng doxycycline/ml treatment were selected for bioluminescent screening.

[2] = tested on: tetracycline responsive lux reporter HEK293 cells (pLuxAB/pLuxCDEfrp-TET); test: Bioluminescent measurement in response to doxycycline; type: cell-based, human; settings: for average total flux: 24 h period; for range of total flux over the course of the assay: after 1 h post treatment
Procedure: Cell lines displaying the greatest upregulation of luxC gene transcription following treatment with 10 ng and 100 ng Doxycycline/ml were passaged into 75 cm^2 tissue culture flasks (Corning) and grown at 37° C. and 5% CO2 until they reached 90% confluence. Cells were then harvested by trypsinization and cell number was determined as the average of two counts using a hemocytometer. Approximately 1×10^6 cells per well were plated in triplicate in opaque 24-well tissue culture plates (Costar) in DMEM without phenol red and supplemented with 10% fetal bovine serum, 0.01 mM non-essential amino acids, and 0.01 mM sodium pyruvate. Immediately post plating, wells were spiked with either 0, 10, 100, or 500 ng Doxycycline/ml. Photon counts were then recorded using an IVIS Lumina in vivo imaging system and analyzed with Living Image 3.0 software (Caliper Life Sciences). The change in light output over time was determined in photons (p)/sec (s) for each well by averaging the photon output over integration times of 10 min and reported with the standard error of the mean.

[3] = tested on: constitutively bioluminescent HEK293 cells expressing pLuxCDEfrp/pLuxAB; test: Bioluminescent measurement in response to toxic chemical exposure (n-decanal); type: cell-based, human
Procedure: To determine the ability of constitutively bioluminescent HEK293 cells to function as a bioreporter for toxic chemical exposure, cells stably expressing pLuxCDEfrp/pLuxAB were exposed to increasing concentrations of the cytotoxic aldehyde n-decanal. HEK293 cells previously determined to be capable of continuous bioluminescent output from the expression of the pLuxCDEfrp/pLuxAB plasmids were passaged into 75 cm^2 tissue culture flasks (Corning) and grown at 37° C. and 5% CO^2 until they reached 90% confluence. Cells were then harvested by trypsinization and cell number was determined as the average of two counts using a hemocytometer. Approximately 1×10^6 cells per well were plated in all wells in opaque 24-well tissue culture plates (Costar) in DMEM without phenol red and supplemented with 10% fetal bovine serum, 0.01 mM non-essential amino acids, and 0.01 mM sodium pyruvate. Triplicate wells were treated with serial dilutions of n-decanal ranging from 0.1% to 1×10^−5%, with a control set receiving no n-decanal amendment to determine maximal bioluminescent expression. Photon counts were then recorded using an IVIS Lumina in vivo imaging system and analyzed with Living Image 3.0 software (Caliper Life Sciences). The change in light output over time was determined in photons (p)/sec/cm^2/steridian (sr) for each well using integration times of […] once every hour for 24 h and reported as the average of three runs with the standard error of the mean.

[4] = molecular target: T1, bacterial luciferase (lux) in protein extracts of HEK293 cells (Photorhabdus luminescens, UniProt P19839); test: In vitro supplementation assays of lux cell extracts (oxidoreductase, aldehyde); type: biochemical, P. luminescens; settings: 0.002% (w/v) n-decanal
T1 construct: expressed in transfected cells; host or cells: HEK293 cells stably carrying pLuxAB (luxA-IRES-luxB, CMV promoter), co-transfected with pLuxCDEfrp:WT or pLuxCDEfrp:CO; The soluble protein extract was made by freeze/thaw
T1 sequence (P19839 1-360): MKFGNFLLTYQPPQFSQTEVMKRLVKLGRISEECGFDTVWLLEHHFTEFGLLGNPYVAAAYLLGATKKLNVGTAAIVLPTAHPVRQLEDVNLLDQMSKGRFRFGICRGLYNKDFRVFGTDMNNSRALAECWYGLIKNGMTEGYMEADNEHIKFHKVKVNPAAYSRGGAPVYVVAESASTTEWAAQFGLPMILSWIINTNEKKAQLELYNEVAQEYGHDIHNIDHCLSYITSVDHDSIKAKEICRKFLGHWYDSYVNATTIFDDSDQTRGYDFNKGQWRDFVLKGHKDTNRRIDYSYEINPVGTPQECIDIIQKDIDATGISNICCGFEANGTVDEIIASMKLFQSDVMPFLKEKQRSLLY
T1 sequence (P19840 1-327 partner): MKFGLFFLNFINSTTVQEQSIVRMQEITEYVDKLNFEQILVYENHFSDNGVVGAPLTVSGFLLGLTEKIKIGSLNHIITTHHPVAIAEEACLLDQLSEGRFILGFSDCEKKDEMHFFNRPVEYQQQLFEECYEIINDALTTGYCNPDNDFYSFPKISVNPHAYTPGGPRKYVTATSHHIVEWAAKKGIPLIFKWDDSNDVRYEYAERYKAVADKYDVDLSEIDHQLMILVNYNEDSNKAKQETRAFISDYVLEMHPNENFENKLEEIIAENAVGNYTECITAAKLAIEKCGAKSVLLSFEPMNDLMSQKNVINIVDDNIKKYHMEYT
Procedure: Bioluminescence was measured using an FB 14 luminometer (Zylux) with a 1 sec integration time. To prepare the sample for in vitro bioluminescent measurement, 400 μl of the isolated protein extract was combined with 500 μl of either oxidoreductase supplemented light assay solution containing 0.1 mM NAD(P)H, 4 μM FMN, 0.2% (w/v) BSA and 1 U of oxidoreductase protein isolated from V. fischeri (Roche), or oxidoreductase deficient light assay solution (distilled water substituted for the 1 U of oxidoreductase protein). Following the initial bioluminescent reading, samples were amended with 0.002% (w/v) n-decanal and the readings were continued to determine if additional aldehyde could increase light output. All bioluminescent signals were normalized to total protein concentration as determined by BCA protein assay (Pierce) and reported as relative light units (RLU)/mg total protein. […] A 15 μl aliquot of cells was removed and counted using a hemocytometer to allow all values to be normalized to viable cell counts. […]
Total protein was extracted from co-transfected pLuxCDEfrp:CO/pLuxAB or pLuxCDEfrp:WT/pLuxAB cell lines or the pTa2AluxAB transfected cell line using a freeze/thaw procedure. […] Bioluminescence was measured using an FB14 luminometer (Zylux) with a 1 sec integration time. […]

[5] = native state, 37° C.; cited from earlier work

For C[C@H]1c2cccc(O)c2C(=O)C2=C(O)[C@]3(O)C(=O)C(C(N)=O)=C(O)[C@@H](N(C)C)[C@@H]3[C@@H](O)[C@@H]21 [doxycycline], the “average CT value for luxC detection” value ([1]; 10 ng doxycycline/ml) was 11.9 (±0.7) cycles, the “average CT value for luxC detection” value ([1]; 100 ng doxycycline/ml) was 11.5 (±0.6) cycles and the “increase in luxC transcription” value ([1]; 10 ng doxycycline/ml) was “approximately 11 fold”. The “reduction of cycles to reach CT” value ([1]; 10 ng doxycycline/ml) was 3.5 cycles, the “increase in luxC transcription” value ([1]; 100 ng doxycycline/ml) was ~20 fold and the “reduction of cycles to reach CT” value ([1]; 100 ng doxycycline/ml) was 4.3 cycles. The average total flux ([2]; 10 ng doxycycline/ml, not significant vs untreated (p=0.06)) was 11,500 (±200) p/s, the “range of total flux over the course of the assay” value ([2]; 10 ng doxycycline/ml) was 1,900 p/s and the “incubation period to significant up regulation in bioluminescent output” value ([2]; 100 ng doxycycline/ml) was 1 h. The average total flux ([2]; 100 ng doxycycline/ml, significant vs untreated (p=1.1×10^−5)) was 12,500 (±200) p/s, the “range of total flux over the course of the assay” value ([2]; 100 ng doxycycline/ml) was 1,800 p/s and the maximum measured flux ([2]; induced with 100 ng doxycycline/ml) was 1.3 (±0.03)×10^4 p/s.

In the case of CCCCCCCCCC=O [n-decanal], the “molar concentration corresponding to the 0.01% treatment” value ([3]; 0.01% decanal) was ~640 µM, the “start of intermittent deviation in bioluminescent flux” value ([3]; 0.01% decanal, post addition) was 40 min and the “time after addition until deleterious effects consistently observable” value ([3]; 0.01% n-decanal) was 4 h. For the same compound, the “effect on bioluminescent output” value ([3]; 0.1% n-decanal) was “reduced bioluminescent output immediately following addition”, the “concentration at which the aldehyde became toxic to the HEK293 cell line” value ([3]; 24 h assay) was ≥ 0.01% and the “effect on bioluminescent output” value ([3]; remaining treatment levels (below 0.01%, down to 1×10^−5%)) was “could not be statistically differentiated from cells not receiving treatment”. For the same compound, the “increase in light output” value ([4]; extracts of cells with codon-optimized genes) was 58 fold and the “increase in light output” value ([4]; extracts of cells with wild-type genes) was 16 fold.

In the case of “firefly luciferase protein: firefly luciferase reporter protein, heat labile under whole animal imaging conditions”, the half life [5] is listed as ≥ 3 min.
